Reference: paper PMC5811606, “Characterization of ^111In-labeled Glucose-Dependent Insulinotropic Polypeptide as a Radiotracer for Neuroendocrine Tumors” (Scientific Reports, 2018)
Where two headings read alike, the source gives them in different places.

Assay: Peptide dose escalation study, BHK-GIPR tumor mice
Type: in vivo, BALB/c nude mice
Conditions: female, iv, total radioactivity; for tissue to tissue ratio at 4 h: BHK-GIPR tumor / blood, read-out: Tumor/Blood
Procedure: All animal experiments were approved by the Animal Welfare Body of the Radboud University, Nijmegen, The Netherlands and carried out in accordance with their guidelines. Six to eight weeks old, female BALB/c nude mice and C3H mice were purchased from Janvier labs (Le Genest Saint Isle, France). For all in vivo experiments, 6-8 weeks old female BALB/c nude mice were injected subcutaneously in the right shoulder with 0.2 ml of a 2.5 × 10^7 cells/ml suspension of BHK-GIPR transfected cells or with 0.2 ml of a 2.5 × 10^7 cells/ml suspension of NES2Y cells mixed with matrigel (2:1) in the right shoulder. When the tumor reached a diameter of 2-5 mm, mice were randomly divided in groups.
To determine the optimal peptide dose of [Lys^37(DTPA)]N-acetyl-GIP1-42, BHK-GIPR transfected tumor bearing BALB/c nude mice (n = 5/group) were injected intravenously with approximately 3 MBq [Lys^37(^111In-DTPA)]N-acetyl-GIP1-42 (0.05 µg) in the tail vein and were co-injected with escalating amounts of unlabeled [Lys^37(DTPA)]N-acetyl-GIP1-42 (0.05 µg – 1.95 µg), resulting in final peptide doses ranging from 0.1 to 2 µg/mouse (0.02 – 0.4 nmol/mouse) (5 groups, n = 5/group). Four hours after injection, mice were euthanized by CO2/O2 suffocation and tumors and other relevant tissues (heart, muscle, lung, spleen, pancreas, kidney, liver, stomach and duodenum) were dissected, weighed and measured in a well type gamma counter. The percentage injected dose per gram of tissue (%ID/g) was determined for each tissue.

Work on `CC[C@H](C)[C@H](NC(=O)[C@H](CO)NC(=O)[C@H](Cc1ccc(O)cc1)NC(=O)[C@H](CC(=O)O)NC(=O)[C@H](CO)NC(=O)[C@@H](NC(=O)[C@H](Cc1ccccc1)NC(=O)[C@@H](NC(=O)CNC(=O)[C@H](CCC(=O)O)NC(=O)[C@H](C)NC(=O)[C@H](Cc1ccc(O)cc1)NC(C)=O)[C@@H](C)O)[C@@H](C)CC)C(=O)N[C@@H](C)C(=O)N[C@@H](CCSC)C(=O)N[C@@H](CC(=O)O)C(=O)N[C@@H](CCCCN)C(=O)N[C@H](C(=O)N[C@@H](Cc1c[nH]cn1)C(=O)N[C@@H](CCC(N)=O)C(=O)N[C@@H](CCC(N)=O)C(=O)N[C@@H](CC(=O)O)C(=O)N[C@@H](Cc1ccccc1)C(=O)N[C@H](C(=O)N[C@@H](CC(N)=O)C(=O)N[C@@H](Cc1c[nH]c2ccccc12)C(=O)N[C@@H](CC(C)C)C(=O)N[C@@H](CC(C)C)C(=O)N[C@@H](C)C(=O)N[C@@H](CCC(N)=O)C(=O)N[C@@H](CCCCN)C(=O)NCC(=O)N[C@@H](CCCCN)C(=O)N[C@@H](CCCCN)C(=O)N[C@@H](CC(N)=O)C(=O)N[C@@H](CC(=O)O)C(=O)N[C@@H](Cc1c[nH]c2ccccc12)C(=O)N[C@@H](CCCCNC(=O)CN(CCN(CCN(CC(=O)O)CC(=O)O)CC(=O)O)CC(=O)O)C(=O)N[C@@H](Cc1c[nH]cn1)C(=O)N[C@@H](CC(N)=O)C(=O)N[C@H](C(=O)N[C@H](C(=O)N[C@@H](CCC(N)=O)C(=O)O)[C@@H](C)O)[C@@H](C)CC)C(C)C)[C@@H](C)CC` [[Lys^37(^111In-DTPA)]N-acetyl-GIP1-42, metal not drawn] yielded a tissue uptake at 4 h (BALB/c nude, BHK-GIPR tumor, peptide doses ≤ 0.2 µg (0.04 nmol) per mouse, 4 hours post-injection, mean ± SD, n=5, read-out: tumor uptake) of 5.2 ± 1.4 %ID/g, a tissue uptake at 4 h (BALB/c nude, mouse, 0.5 ug/mouse, BHK-GIPR tumor, peptide dose 0.5 µg (0.1 nmol), 4 hours post-injection, mean ± SD, n=5, read-out: tumor uptake) of 2.4 ± 0.7 %ID/g and a tissue to tissue ratio at 4 h (mouse, 0.1 ug/mouse, BHK-GIPR tumor BALB/c nude mice, i.v., peptide dose 0.1 µg, 4 h p.i., mean n=5) of 143. It also gave a tissue to tissue ratio at 4 h (mouse, 0.2 ug/mouse, BHK-GIPR tumor BALB/c nude mice, i.v., peptide dose 0.2 µg, 4 h p.i., mean n=5) of 110, a tissue to tissue ratio at 4 h (mouse, 0.5 ug/mouse, BHK-GIPR tumor BALB/c nude mice, i.v., peptide dose 0.5 µg, 4 h p.i., mean n=5) of 52.6 and a tissue to tissue ratio at 4 h (mouse, 1 ug/mouse, BHK-GIPR tumor BALB/c nude mice, i.v., peptide dose 1 µg, 4 h p.i., mean n=5) of 50.3. It also gave a tissue uptake at 4 h (mouse, blood, 0.1 ug/mouse, BHK-GIPR tumor BALB/c nude mice, i.v., peptide dose 0.1 µg, 4 h p.i., mean n=5, read-out: Blood uptake) of 0.033 %ID/g, a tissue uptake at 4 h (mouse, blood, 0.2 ug/mouse, BHK-GIPR tumor BALB/c nude mice, i.v., peptide dose 0.2 µg, 4 h p.i., mean n=5, read-out: Blood uptake) of 0.047 %ID/g and a tissue uptake at 4 h (mouse, blood, 0.5 ug/mouse, BHK-GIPR tumor BALB/c nude mice, i.v., peptide dose 0.5 µg, 4 h p.i., mean n=5, read-out: Blood uptake) of 0.047 %ID/g. It also gave a tissue uptake at 4 h (mouse, blood, 1 ug/mouse, BHK-GIPR tumor BALB/c nude mice, i.v., peptide dose 1 µg, 4 h p.i., mean n=5, read-out: Blood uptake) of 0.059 %ID/g, a tissue uptake at 4 h (mouse, blood, 2 ug/mouse, BHK-GIPR tumor BALB/c nude mice, i.v., peptide dose 2 µg, 4 h p.i., mean n=5, read-out: Blood uptake) of 0.066 %ID/g and a tissue uptake at 4 h (mouse, duodenum, 0.1 ug/mouse, BHK-GIPR tumor BALB/c nude mice, i.v., peptide dose 0.1 µg, 4 h p.i., mean n=5, read-out: Duodenum uptake) of 0.486 %ID/g. It also gave a tissue uptake at 4 h (mouse, duodenum, 0.2 ug/mouse, BHK-GIPR tumor BALB/c nude mice, i.v., peptide dose 0.2 µg, 4 h p.i., mean n=5, read-out: Duodenum uptake) of 0.573 %ID/g, a tissue uptake at 4 h (mouse, duodenum, 0.5 ug/mouse, BHK-GIPR tumor BALB/c nude mice, i.v., peptide dose 0.5 µg, 4 h p.i., mean n=5, read-out: Duodenum uptake) of 0.529 %ID/g and a tissue uptake at 4 h (mouse, duodenum, 1 ug/mouse, BHK-GIPR tumor BALB/c nude mice, i.v., peptide dose 1 µg, 4 h p.i., mean n=5, read-out: Duodenum uptake) of 0.75 %ID/g. For the same compound, the tissue uptake at 4 h (mouse, duodenum, 2 ug/mouse, BHK-GIPR tumor BALB/c nude mice, i.v., peptide dose 2 µg, 4 h p.i., mean n=5, read-out: Duodenum uptake) was 0.929 %ID/g, the tissue uptake at 4 h (mouse, heart, 0.1 ug/mouse, BHK-GIPR tumor BALB/c nude mice, i.v., peptide dose 0.1 µg, 4 h p.i., mean n=5, read-out: Heart uptake) was 0.133 %ID/g and the tissue uptake at 4 h (mouse, heart, 0.2 ug/mouse, BHK-GIPR tumor BALB/c nude mice, i.v., peptide dose 0.2 µg, 4 h p.i., mean n=5, read-out: Heart uptake) was 0.156 %ID/g. It also gave a tissue uptake at 4 h (mouse, heart, 0.5 ug/mouse, BHK-GIPR tumor BALB/c nude mice, i.v., peptide dose 0.5 µg, 4 h p.i., mean n=5, read-out: Heart uptake) of 0.163 %ID/g, a tissue uptake at 4 h (mouse, heart, 1 ug/mouse, BHK-GIPR tumor BALB/c nude mice, i.v., peptide dose 1 µg, 4 h p.i., mean n=5, read-out: Heart uptake) of 0.178 %ID/g and a tissue uptake at 4 h (mouse, heart, 2 ug, BHK-GIPR tumor BALB/c nude mice, i.v., peptide dose 2 µg, 4 h p.i., mean n=5, read-out: Heart uptake) of 0.173 %ID/g. The tissue uptake at 4 h (mouse, kidney, 0.1 ug/mouse, BHK-GIPR tumor BALB/c nude mice, i.v., peptide dose 0.1 µg, 4 h p.i., mean n=5, read-out: Kidney uptake) was 237 %ID/g, the tissue uptake at 4 h (mouse, kidney, 0.2 ug/mouse, BHK-GIPR tumor BALB/c nude mice, i.v., peptide dose 0.2 µg, 4 h p.i., mean n=5, read-out: Kidney uptake) was 265 %ID/g and the tissue uptake at 4 h (mouse, kidney, 0.5 ug/mouse, BHK-GIPR tumor BALB/c nude mice, i.v., peptide dose 0.5 µg, 4 h p.i., mean n=5, read-out: Kidney uptake) was 214 %ID/g. It also gave a tissue uptake at 4 h (mouse, kidney, 1 ug/mouse, BHK-GIPR tumor BALB/c nude mice, i.v., peptide dose 1 µg, 4 h p.i., mean n=5, read-out: Kidney uptake) of 287 %ID/g, a tissue uptake at 4 h (mouse, kidney, 2 ug/mouse, BHK-GIPR tumor BALB/c nude mice, i.v., peptide dose 2 µg, 4 h p.i., mean n=5, read-out: Kidney uptake) of 257 %ID/g and a tissue uptake at 4 h (mouse, liver, 0.1 ug/mouse, BHK-GIPR tumor BALB/c nude mice, i.v., peptide dose 0.1 µg, 4 h p.i., mean n=5, read-out: Liver uptake) of 1.6 %ID/g. It also gave a tissue uptake at 4 h (mouse, liver, 0.2 ug/mouse, BHK-GIPR tumor BALB/c nude mice, i.v., peptide dose 0.2 µg, 4 h p.i., mean n=5, read-out: Liver uptake) of 1.53 %ID/g, a tissue uptake at 4 h (mouse, liver, 0.5 ug/mouse, BHK-GIPR tumor BALB/c nude mice, i.v., peptide dose 0.5 µg, 4 h p.i., mean n=5, read-out: Liver uptake) of 1.55 %ID/g and a tissue uptake at 4 h (mouse, liver, 1 ug/mouse, BHK-GIPR tumor BALB/c nude mice, i.v., peptide dose 1 µg, 4 h p.i., mean n=5, read-out: Liver uptake) of 1.74 %ID/g. For the same compound, the tissue uptake at 4 h (mouse, liver, 2 ug/mouse, BHK-GIPR tumor BALB/c nude mice, i.v., peptide dose 2 µg, 4 h p.i., mean n=5, read-out: Liver uptake) was 1.83 %ID/g, the tissue uptake at 4 h (mouse, lung, 0.1 ug, BHK-GIPR tumor BALB/c nude mice, i.v., peptide dose 0.1 µg, 4 h p.i., mean n=5, read-out: Lung uptake) was 0.364 %ID/g and the tissue uptake at 4 h (mouse, lung, 0.2 ug, BHK-GIPR tumor BALB/c nude mice, i.v., peptide dose 0.2 µg, 4 h p.i., mean n=5, read-out: Lung uptake) was 0.518 %ID/g. It also gave a tissue uptake at 4 h (mouse, lung, 0.5 ug, BHK-GIPR tumor BALB/c nude mice, i.v., peptide dose 0.5 µg, 4 h p.i., mean n=5, read-out: Lung uptake) of 0.577 %ID/g, a tissue uptake at 4 h (mouse, lung, 1 ug, BHK-GIPR tumor BALB/c nude mice, i.v., peptide dose 1 µg, 4 h p.i., mean n=5, read-out: Lung uptake) of 0.608 %ID/g and a tissue uptake at 4 h (mouse, lung, 2 ug, BHK-GIPR tumor BALB/c nude mice, i.v., peptide dose 2 µg, 4 h p.i., mean n=5, read-out: Lung uptake) of 0.56 %ID/g.
